According to PubChem BioAssay (NCI):
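These data come from cells grown in 96-well plates and exposed to compound for 48 hours at five concentrations. Here, GI50 denotes the concentration required for 50% inhibition of growth. TGI is the concentration that stops growth completely.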

Columns and labels:
Assay in all cases: growth of human tumour cells (NCI), 48 h
[1] = test system: DMS 273 small cell lung
[2] = test system: HCC-2998 colon
[3] = test system: HCT-15 colon
[4] = test system: HOP-92 NSCLC
[5] = test system: NCI-H226 lung
[6] = test system: NCI-H460 lung
[7] = test system: OVCAR-3 ovarian
[8] = test system: SK-MEL-28 melanoma
[9] = test system: SK-OV-3 ovarian
[10] = test system: SW-620 colon

In the case of `CC1C=C(OC(=O)c2ccccc2)C(=O)C(n2cc(F)c(=O)[nH]c2=O)O1` (stereo not given), the TGI [1] was greater than 100 µM, the TGI [2] was greater than 100 µM and the TGI [3] was greater than 100 µM. The TGI [4] was greater than 100 µM, the TGI [5] was greater than 100 µM and the TGI [6] was greater than 100 µM. The TGI [7] was greater than 100 µM, the TGI [8] was greater than 100 µM and the TGI [9] was greater than 100 µM. For the same molecule, the TGI [10] was greater than 100 µM.
In the case of `C1C[OH+]CC[OH+]CCNCC[OH+]CC[OH+]CCN1.N.[Cl-].[Pt+4]`, the GI50 [1] was 2.87 µM, the TGI [1] was 15.7 µM and the GI50 [2] was 13.5 µM. For the same molecule, the TGI [2] was 32.6 µM, the GI50 [3] was 20.2 µM and the TGI [3] was 71.6 µM. The GI50 [4] was 16.1 µM, the TGI [4] was 58.3 µM and the GI50 [5] was 23 µM. The TGI [5] was 77.4 µM, the GI50 [6] was 1.81 µM and the TGI [6] was 63.9 µM. It also gave a GI50 [7] of 4.12 µM, a TGI [7] of 19.4 µM and a GI50 [8] of 11.1 µM. It also gave a TGI [8] of 35.7 µM, a GI50 [9] of 15.1 µM and a TGI [9] of 60.9 µM. For the same molecule, the GI50 [10] was 7.62 µM and the TGI [10] was greater than 100 µM.
For `COc1cc(OC)c2c(c1)C(=O)C(CC(C)O)=CC2=O` (stereo not given), the TGI [1] was 37.6 µM, the TGI [2] was 43.7 µM and the TGI [3] was 27.7 µM. For the same molecule, the TGI [4] was 23.3 µM, the TGI [5] was 35.4 µM and the TGI [6] was 40.4 µM. The TGI [7] was 18.3 µM, the TGI [8] was 31.5 µM and the TGI [9] was 31.9 µM. The TGI [10] was 31.7 µM.
`CCCCCCCCCCCC(=O)OCC1OC(n2cc(F)c(=O)[nH]c2=O)C(NC(=O)OCc2ccccc2)C(OC(=O)CCCCCCCCCCC)C1O` (stereo not given) gave a TGI [1] greater than 100 µM, a TGI [2] greater than 100 µM and a TGI [3] greater than 100 µM. It also gave a TGI [4] greater than 100 µM, a TGI [5] greater than 100 µM and a TGI [6] greater than 100 µM. The TGI [7] was greater than 100 µM, the TGI [8] was greater than 100 µM and the TGI [9] was greater than 100 µM. The TGI [10] was greater than 100 µM.
Work on `C=CC/C=C/Cc1csc(C(C)(C)C(O)C/C=C/C(=C)CCNC(=O)OC)n1` (stereo not given) yielded a TGI [1] greater than 100 µM, a TGI [2] greater than 100 µM and a TGI [3] greater than 100 µM. For the same molecule, the TGI [4] was greater than 100 µM, the TGI [5] was greater than 100 µM and the TGI [6] was greater than 100 µM. For the same molecule, the TGI [7] was greater than 100 µM, the TGI [8] was greater than 100 µM and the TGI [9] was greater than 100 µM. The TGI [10] was greater than 46.4 µM.
Work on `CCOC(=O)COc1ccccc1/C=C1\CCC(CN(C)C)C1=O` (stereo not given) yielded a TGI [1] of 8.17 µM, a TGI [2] of 7.98 µM and a TGI [3] of 9.86 µM. For the same molecule, the TGI [4] was 25.8 µM, the TGI [5] was 32.8 µM and the TGI [6] was 33.7 µM. For the same molecule, the TGI [7] was 20.6 µM, the TGI [8] was 7.21 µM and the TGI [9] was 31.4 µM. It also gave a TGI [10] of 6.64 µM.
Work on `Cc1ccc(NC(=O)C(=O)C(C#N)c2ccccc2C)cc1C` (stereo not given) yielded a TGI [1] greater than 100 µM, a TGI [2] greater than 82 µM and a TGI [3] greater than 62 µM. For the same molecule, the TGI [4] was greater than 100 µM, the TGI [5] was greater than 100 µM and the TGI [6] was greater than 79.9 µM. For the same molecule, the TGI [7] was greater than 100 µM, the TGI [8] was greater than 100 µM and the TGI [9] was greater than 100 µM. For the same molecule, the TGI [10] was greater than 61.3 µM.
